# Assay results as given in patent publication US8785488B2 (Exelixis Patent Company LLC, priority 2009, dated 2014).
# Biological target: T1, human TGR5 (h-TGR5) (Homo sapiens, UniProt Q8TDU6)
# T1 construct: expressed in transfected cells
# T1 sequence (Q8TDU6 1-330): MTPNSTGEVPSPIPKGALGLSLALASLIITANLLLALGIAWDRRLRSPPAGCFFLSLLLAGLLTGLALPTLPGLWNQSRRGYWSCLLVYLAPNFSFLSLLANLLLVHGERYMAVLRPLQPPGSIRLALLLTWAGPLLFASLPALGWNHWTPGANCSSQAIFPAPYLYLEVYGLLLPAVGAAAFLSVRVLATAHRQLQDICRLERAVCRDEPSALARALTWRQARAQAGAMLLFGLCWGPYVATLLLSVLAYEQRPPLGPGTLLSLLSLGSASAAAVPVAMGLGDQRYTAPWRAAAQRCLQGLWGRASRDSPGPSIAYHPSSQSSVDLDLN
# Assay: TGR5/CRE-Luciferiase Assay (HEK 293 hTGR5/CRE-Luc cells)
# Assay type: cell-based
# Settings: h-TGR5 CRE-Luc EC50, Table 1; read-out: CRE-Luc (EC50)
# Procedure, shortened: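 HEK293 cells stably carrying hTGR5 and a CRE-luciferase reporter were exposed to serially diluted compounds (diluted in DMEM with 5% DMSO) for 6 h. Cells were then lysed in luciferase buffer, luminescence was read, and EC50 values were derived from dose-response curves.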
row,EC50,Structure (SMILES)
1,1000 to 10000 nM,"CC(C)(c1ccc(Cl)c(Cl)c1)c1cnc(C(O)CCc2ccc(Cl)cc2Cl)n1-c1ccc(F)cc1 (centres unmarked) [3-(2,4-dichlorophenyl)-1-{5-[1-(3,4-dichlorophenyl)-1-methylethyl]-1-(4-fluorophenyl)-1H-imidazol-2-yl}propan-1-ol]"
2,1000 to 10000 nM,"CC(C)(c1ccc(Cl)c(Cl)c1)c1cnc(C(=O)CCc2ccc(Cl)cc2Cl)n1-c1ccc(F)cc1 [3-(2,4-dichlorophenyl)-1-{5-[1-(3,4-dichlorophenyl)-1-methylethyl]-1-(4-fluorophenyl)-1H-imidazol-2-yl}propan-1-one]"
3,100 to 1000 nM,CC(C)(c1ccc(Cl)c(OCCCO)c1)c1cnc(SCc2c(F)cccc2Cl)n1-c1ccc(F)cc1 [3-[(2-chloro-5-{1-[2-{[(2-chloro-6-fluorophenyl)methyl]thio}-1-(4-fluorophenyl)-1H-imidazol-5-yl]-1-methylethyl}phenyl)oxy]propan-1-ol]
4,100 to 1000 nM,"CC(C)(c1ccc(Cl)c(Cl)c1)c1cnc(SCC2CCCN(S(C)(=O)=O)C2)n1-c1ccc(F)cc1 (centres unmarked) [3-[({5-[1-(3,4-dichlorophenyl)-1-methylethyl]-1-(4-fluorophenyl)-1H-imidazol-2-yl}thio)methyl]-1-(methylsulfonyl)piperidine]"
5,1000 to 10000 nM,"CC(C)(c1ccc(Cl)c(Cl)c1)c1cnc(COc2ncc(C(F)(F)F)cc2Cl)n1-c1ccc(F)cc1 [3-chloro-2-[({5-[1-(3,4-dichlorophenyl)-1-methylethyl]-1-(4-fluorophenyl)-1H-imidazol-2-yl}methyl)oxy]-5-(trifluoromethyl)pyridine]"
6,100 to 1000 nM,"CC(C)(c1ccc(Cl)c(Cl)c1)c1cnc(SCc2c(Cl)cccc2C(=O)O)n1-c1ccc(F)cc1 [3-chloro-2-[({5-[1-(3,4-dichlorophenyl)-1-methylethyl]-1-(4-fluorophenyl)-1H-imidazol-2-yl}thio)methyl]benzoic acid]"
7,100 to 1000 nM,"CC(C)(c1ccc(Cl)c(Cl)c1)c1cnc(CCc2c(F)cc(C(=O)O)cc2Cl)n1-c1ccc(F)cc1 [3-chloro-4-(2-{5-[1-(3,4-dichlorophenyl)-1-methylethyl]-1-(4-fluorophenyl)-1H-imidazol-2-yl}ethyl)-5-fluorobenzoic acid]"
8,1000 to 10000 nM,"CC(C)(c1ccc(Cl)c(Cl)c1)c1cnc(CCc2ccc(S(=O)(=O)NC(=O)NN3CCCC3)cc2Cl)n1-c1ccc(F)cc1 [3-chloro-4-(2-{5-[1-(3,4-dichlorophenyl)-1-methylethyl]-1-(4-fluorophenyl)-1H-imidazol-2-yl}ethyl)-N-[(pyrrolidin-1-ylamino)carbonyl]benzenesulfonamide]"
9,1000 to 10000 nM,CC(C)(c1ccc(S(C)(=O)=O)cc1)c1cnc(SCc2ccc(S(=O)(=O)NC(=O)NN3CCCC3)cc2Cl)n1-c1ccc(F)cc1 [3-chloro-4-({[1-(4-fluorophenyl)-5-{1-methyl-1-[4-(methylsulfonyl)phenyl]ethyl}-1H-imidazol-2-yl]thio}methyl)-N-[(pyrrolidin-1-ylamino)carbonyl]benzenesulfonamide]
10,1000 to 10000 nM,CC(C)(c1ccc(S(C)(=O)=O)cc1)c1cnc(SCc2ccc(S(=O)(=O)NC(=O)NN3CCCC3)cc2Cl)n1-c1ccc(F)cn1 [3-chloro-4-({[1-(5-fluoropyridin-2-yl)-5-{1-methyl-1-[4-(methylsulfonyl)phenyl]ethyl}-1H-imidazol-2-yl]thio}methyl)-N-[(pyrrolidin-1-ylamino)carbonyl]benzenesulfonamide]
11,< 100 nM,"COc1c(Cl)cc(C(C)(C)c2cnc(SCc3ccc(S(N)(=O)=O)cc3Cl)n2-c2ccc(F)cc2)cc1Cl [3-chloro-4-({[5-{1-[3,5-dichloro-4-(methyloxy)phenyl]-1-methylethyl}-1-(4-fluorophenyl)-1H-imidazol-2-yl]thio}methyl)benzenesulfonamide]"
12,1000 to 10000 nM,"CC(C)(c1ccc(F)cc1)c1cnc(SCc2ccc(S(=O)(=O)NC(=O)NN3CCCC3)cc2Cl)n1-c1ccc(F)c(F)c1 [3-chloro-4-[({1-(3,4-difluorophenyl)-5-[1-(4-fluorophenyl)-1-methylethyl]-1H-imidazol-2-yl}thio)methyl]-N-[(pyrrolidin-1-ylamino)carbonyl]benzenesulfonamide]"
13,100 to 1000 nM,"CCN(CC)CCOc1cc(-n2c(C(C)(C)c3ccc(Cl)c(Cl)c3)cnc2SCc2c(F)cc(C(=O)O)cc2Cl)ccc1F [3-chloro-4-[({5-[1-(3,4-dichlorophenyl)-1-methylethyl]-1-(3-{[2-(diethylamino)ethyl]oxy}-4-fluorophenyl)-1H-imidazol-2-yl}thio)methyl]-5-fluorobenzoic acid]"
14,1000 to 10000 nM,"CC(C)(c1ccc(Cl)c(Cl)c1)c1cnc(COc2ccc(C(=O)O)cc2Cl)n1-c1ccc(F)cc1 [3-chloro-4-[({5-[1-(3,4-dichlorophenyl)-1-methylethyl]-1-(4-fluorophenyl)-1H-imidazol-2-yl}methyl)oxy]benzoic acid]"
15,100 to 1000 nM,"CC(C)(c1ccc(Cl)c(Cl)c1)c1cnc(SCc2ccc(C(N)=O)cc2Cl)n1-c1ccc(F)cc1 [3-chloro-4-[({5-[1-(3,4-dichlorophenyl)-1-methylethyl]-1-(4-fluorophenyl)-1H-imidazol-2-yl}thio)methyl]benzamide]"
16,100 to 1000 nM,"CC(C)(c1ccc(Cl)c(Cl)c1)c1cnc(SCc2ccc(C(=N)N)cc2Cl)n1-c1ccc(F)cc1 [3-chloro-4-[({5-[1-(3,4-dichlorophenyl)-1-methylethyl]-1-(4-fluorophenyl)-1H-imidazol-2-yl}thio)methyl]benzenecarboximidamide]"
17,100 to 1000 nM,"CC(C)(c1ccc(Cl)c(Cl)c1)c1cnc(SCc2ccc(C#N)cc2Cl)n1-c1ccc(F)cc1 [3-chloro-4-[({5-[1-(3,4-dichlorophenyl)-1-methylethyl]-1-(4-fluorophenyl)-1H-imidazol-2-yl}thio)methyl]benzonitrile]"
18,100 to 1000 nM,"CC(C)(c1ccc(F)c(F)c1)c1cnc(SCc2c(F)cc(C(=O)O)cc2Cl)n1-c1ccc(F)cc1 [3-chloro-4-[({5-[1-(3,4-difluorophenyl)-1-methylethyl]-1-(4-fluorophenyl)-1H-imidazol-2-yl}thio)methyl]-5-fluorobenzoic acid]"
19,< 100 nM,COc1cc(-n2c(C(C)(C)c3ccc(Cl)c(OC)c3)cnc2SCc2ccc(S(N)(=O)=O)cc2Cl)ccc1F [3-chloro-4-{[(5-{1-[4-chloro-3-(methyloxy)phenyl]-1-methylethyl}-1-[4-fluoro-3-(methyloxy)phenyl]-1H-imidazol-2-yl)thio]methyl}benzenesulfonamide]
20,1000 to 10000 nM,"CC(C)(c1ccc(F)c(F)c1)c1cnc(SCC2CCN(CC(O)CO)CC2)n1-c1ccc(F)cc1 (centres unmarked) [3-{4-[({5-[1-(3,4-difluorophenyl)-1-methylethyl]-1-(4-fluorophenyl)-1H-imidazol-2-yl}thio)methyl]piperidin-1-yl}propane-1,2-diol]"
21,1000 to 10000 nM,"CC(C)(c1ccc(Cl)c(Cl)c1)c1cnc(C(F)CC2CCN(S(C)(=O)=O)CC2)n1-c1ccc(F)cc1 (centres unmarked) [4-(2-{5-[1-(3,4-dichlorophenyl)-1-methylethyl]-1-(4-fluorophenyl)-1H-imidazol-2-yl}-2-fluoroethyl)-1-(methylsulfonyl)piperidine]"
22,1000 to 10000 nM,"CC(C)(c1ccc(S(C)(=O)=O)cc1)c1cnc(SCc2c(F)cc(C(=O)O)cc2F)n1-c1ccc(F)c(F)c1 [4-({[1-(3,4-difluorophenyl)-5-{1-methyl-1-[4-(methylsulfonyl)phenyl]ethyl}-1H-imidazol-2-yl]thio}methyl)-3,5-difluorobenzoic acid]"
23,< 100 nM,"COc1c(Cl)cc(C(C)(C)c2cnc(SCc3ccc(S(N)(=O)=O)cc3F)n2-c2ccc(F)cc2)cc1Cl [4-({[5-{1-[3,5-dichloro-4-(methyloxy)phenyl]-1-methylethyl}-1-(4-fluorophenyl)-1H-imidazol-2-yl]thio}methyl)-3-fluorobenzenesulfonamide]"
24,1000 to 10000 nM,"CC(C)(c1ccc(Cl)c(S(N)(=O)=O)c1)c1cnc(SCc2c(F)cc(C(=O)O)cc2F)n1-c1ccc(F)cc1 [4-({[5-{1-[3-(aminosulfonyl)-4-chlorophenyl]-1-methylethyl}-1-(4-fluorophenyl)-1H-imidazol-2-yl]thio}methyl)-3,5-difluorobenzoic acid]"
25,100 to 1000 nM,COc1ccc(C(C)(C)c2cnc(SCc3ccc(C(=O)O)cc3F)n2-c2ccc(F)cc2)cc1Cl [4-({[5-{1-[3-chloro-4-(methyloxy)phenyl]-1-methylethyl}-1-(4-fluorophenyl)-1H-imidazol-2-yl]thio}methyl)-3-fluorobenzoic acid]
26,1000 to 10000 nM,"CC(C)(c1ccc(Cl)c(Cl)c1)c1cnc(SCc2ccc(F)cc2Cl)n1-c1ccc(N2CCOCC2)cc1 [4-[4-(2-{[(2-chloro-4-fluorophenyl)methyl]thio}-5-[1-(3,4-dichlorophenyl)-1-methylethyl]-1H-imidazol-1-yl)phenyl]morpholine]"
27,< 100 nM,"CC(C)(c1ccc(Cl)c(Cl)c1)c1cnc(SCC2CCN(c3nnn[nH]3)CC2)n1-c1ccc(F)c(F)c1 [4-[({5-[1-(3,4-dichlorophenyl)-1-methylethyl]-1-(3,4-difluorophenyl)-1H-imidazol-2-yl}thio)methyl]-1-(1H-tetrazol-5-yl)piperidine]"
28,< 100 nM,"CC(C)(c1ccc(Cl)c(Cl)c1)c1cnc(SCC2CCN(S(C)(=O)=O)CC2)n1-c1ccc(F)c(F)c1 [4-[({5-[1-(3,4-dichlorophenyl)-1-methylethyl]-1-(3,4-difluorophenyl)-1H-imidazol-2-yl}thio)methyl]-1-(methylsulfonyl)piperidine]"
29,1000 to 10000 nM,"CC(C)(c1ccc(Cl)c(Cl)c1)c1cnc(COc2ccnc3ccccc23)n1-c1ccc(F)cc1 [4-[({5-[1-(3,4-dichlorophenyl)-1-methylethyl]-1-(4-fluorophenyl)-1H-imidazol-2-yl}methyl)oxy]quinoline]"
